The term IC50 denotes the concentration that inhibits the measured activity by half.

Each structure is given as a SMILES string.

The record followed here is publication PMC6659393, “A New Use for an Old Drug: Carmofur Attenuates Lipopolysaccharide (LPS)-Induced Acute Lung Injury via Inhibition of FAAH and NAAA Activities” (Frontiers in Pharmacology, 2019).

The target in assay [1] is T1, N-acylethanolamine acid amidase (NAAA) (Rattus norvegicus, UniProt Q5KTC7).
T1 construct: rat NAAA overexpressed in HEK293 cells (HEK293-rNAAA), crude protein
T1 sequence (Q5KTC7 34-130): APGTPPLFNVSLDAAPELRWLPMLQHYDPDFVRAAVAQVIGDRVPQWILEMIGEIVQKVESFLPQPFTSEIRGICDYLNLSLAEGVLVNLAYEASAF
T1 sequence (Q5KTC7 131-362): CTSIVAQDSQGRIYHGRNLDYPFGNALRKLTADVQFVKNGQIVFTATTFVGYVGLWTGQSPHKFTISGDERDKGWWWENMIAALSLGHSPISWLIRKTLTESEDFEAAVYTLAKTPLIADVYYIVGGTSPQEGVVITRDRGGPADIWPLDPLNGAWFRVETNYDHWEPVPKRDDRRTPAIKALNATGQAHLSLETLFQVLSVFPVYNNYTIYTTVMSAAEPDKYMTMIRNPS
The experiment in a line: C17:[…] FAE hydrolysis by HPLC-MS in crude protein of carmofur-treated HEK293-rNAAA cells; dialysis reversibility test. It counts as cell-based.

For assay [2], the target named is T2, fatty acid amide hydrolase (FAAH) (Rattus norvegicus, UniProt P97612).
T2 construct: rat FAAH overexpressed in HEK293 cells (HEK293-rFAAH), crude protein
T2 sequence (P97612 1-579): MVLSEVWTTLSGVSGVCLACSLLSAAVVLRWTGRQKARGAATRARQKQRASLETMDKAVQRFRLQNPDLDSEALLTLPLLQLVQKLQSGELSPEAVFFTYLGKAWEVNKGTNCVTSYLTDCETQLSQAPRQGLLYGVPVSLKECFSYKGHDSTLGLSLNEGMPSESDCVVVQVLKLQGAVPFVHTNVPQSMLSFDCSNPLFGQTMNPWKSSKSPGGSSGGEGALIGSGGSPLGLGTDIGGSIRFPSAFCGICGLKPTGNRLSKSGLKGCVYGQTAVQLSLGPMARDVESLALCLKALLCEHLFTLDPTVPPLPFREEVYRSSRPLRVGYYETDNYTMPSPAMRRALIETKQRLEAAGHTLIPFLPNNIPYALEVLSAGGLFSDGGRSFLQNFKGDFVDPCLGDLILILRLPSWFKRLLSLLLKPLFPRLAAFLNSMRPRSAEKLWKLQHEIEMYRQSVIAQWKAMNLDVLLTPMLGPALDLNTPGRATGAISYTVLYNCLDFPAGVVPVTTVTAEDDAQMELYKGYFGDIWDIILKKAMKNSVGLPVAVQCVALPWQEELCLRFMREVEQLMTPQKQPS
Briefly: AEA hydrolysis by HPLC-MS in crude protein of carmofur-treated HEK293-rFAAH cells; dialysis reversibility test. It counts as cell-based.

`CCCCCCNC(=O)n1cc(F)c(=O)[nH]c1=O` [carmofur]: the results for the IC50 in assay [1] and in assay [2] were 710 ± 54 nM and 110 ± 25 nM, respectively.
